Each structure is given as a SMILES string.

The first assay has as its system PC-3 cells. Nature of the assay: PC-3 Oxygen Rate Consumption (OCR) Assay. Format: cell-based. Particulars: Homo sapiens, 0.05 h, medium with 2% FBS, OCR at 3-min post-injection normalized to % increase over DMSO-treated cells, concentration for half-maximal OCR increase, read-out: EC50-PC3-OCR-FBS-3min. Summed up: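 PC-3 cells seeded a day before, equilibrated 1 h in XF medium with 10 mM glucose, 1 mM pyruvate, 2% FBS, non-CO2 at 37 °C. Compound injected after basal OCR reads; OCR at 3 min post-injection normalized as % increase over DMSO, EC50 = half-maximal increase; six replicates.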
One may read the EC50 as the concentration at which the effect is half-maximal. On to `N#CC12CCC(NC(=O)c3ccc(F)cc3NS(=O)(=O)CCC(F)(F)F)(CC1)CC2` [Example 134, N-(4-cyanobicyclo[2.2.2]octan-1-yl)-4-fluoro-2-((3,3,3-trifluoropropyl)sulfonamido)benzamide], for which the EC50 was 2.68 µM.
Same read-out and setting: as for `N#CC12CCC(NC(=O)c3ccc(Cl)cc3NS(=O)(=O)CCC(F)(F)F)(CC1)CC2` [Example 135, 4-chloro-N-(4-cyanobicyclo[2.2.2]octan-1-yl)-2-((3,3,3-trifluoropropyl)sulfonamido)benzamide], the figure is 1.62 µM; as for `CS(=O)(=O)Nc1c(F)cccc1C(=O)NC12CC(C(F)(F)F)(C1)C2` [Example 136, 3-fluoro-2-(methylsulfonamido)-N-(3-(trifluoromethyl)bicyclo[1.1.1]pentan-1-yl)benzamide], not below 100 µM; as for `CS(=O)(=O)Nc1cc(F)ccc1C(=O)NC12CC(C1)C2` [Example 137, N-(bicyclo[1.1.1]pentan-1-yl)-4-fluoro-2-(methylsulfonamido)benzamide], not below 100 µM.
On to `CS(=O)(=O)Nc1ccccc1C(=O)NC12CC(C(F)(F)F)(C1)C2` [Example 138, 2-(methylsulfonamido)-N-(3-(trifluoromethyl)bicyclo[1.1.1]pentan-1-yl)benzamide], for which the EC50 is not below 100 µM.
Still for that read-out and setting: as for `CS(=O)(=O)Nc1cc(F)ccc1C(=O)NC12C3C4C5C3C1C5C42` (centres unmarked) [Example 139, N-(cuban-1-yl)-4-fluoro-2-(methylsulfonamido)benzamide], the figure is 23.7 µM; as for `CS(=O)(=O)Nc1ccc(F)cc1C(=O)NC12CC(C(F)(F)F)(C1)C2` [Example 140, 5-fluoro-2-(methylsulfonamido)-N-(3-(trifluoromethyl)bicyclo[1.1.1]pentan-1-yl)benzamide], 36.1 µM.
On to `O=C(NC12CC(C(F)(F)F)(C1)C2)c1ccccc1NS(=O)(=O)c1ccc(Cl)cc1Cl` [Example 141, 2-((2,4-dichlorophenyl)sulfonamido)-N-(3-(trifluoromethyl)bicyclo[1.1.1]pentan-1-yl)benzamide], for which the EC50 is 1.18 µM.
The same measure, in the same setting: the result for `CS(=O)(=O)Nc1cccc(F)c1C(=O)NC12CC(C(F)(F)F)(C1)C2` [Example 142, 2-fluoro-6-(methylsulfonamido)-N-(3-(trifluoromethyl)bicyclo[1.1.1]pentan-1-yl)benzamide] reads not below 100 µM.
Turning to `O=C(NC12CC(C(F)(F)F)(C1)C2)c1ccccc1NS(=O)(=O)CC(F)(F)F` [Example 143, 2-((2,2,2-trifluoroethyl)sulfonamido)-N-(3-(trifluoromethyl)bicyclo[1.1.1]pentan-1-yl)benzamide], the EC50 turned out to be 10.2 µM.
As for `O=C(NC12CC(C(F)(F)F)(C1)C2)c1ccccc1NS(=O)(=O)C(F)(F)F` [Example 144, N-(3-(trifluoromethyl)bicyclo[1.1.1]pentan-1-yl)-2-((trifluoromethyl)sulfonamido)benzamide], the EC50 stood at 18.6 µM.
The same measure, in the same setting: as for `CS(=O)(=O)Nc1cc(S(F)(F)(F)(F)F)ccc1C(=O)NC12CC(C(F)(F)F)(C1)C2` [Example 146, 2-(methylsulfonamido)-4-(pentafluoro-λ^6-sulfanyl)-N-(3-(trifluoromethyl)bicyclo[1.1.1]pentan-1-yl)benzamide], the figure is 0.677 µM.
On the same count and under the same terms, the result for `CS(=O)(=O)Nc1cc(C(F)(F)F)ccc1C(=O)NC12CC(C(F)(F)F)(C1)C2` [Example 147, 2-(methylsulfonamido)-4-(trifluoromethyl)-N-(3-(trifluoromethyl)bicyclo[1.1.1]pentan-1-yl)benzamide] reads 1.58 µM.
The same measure, in the same setting: as for `CS(=O)(=O)Nc1cc(C#N)ccc1C(=O)NC12CC(C(F)(F)F)(C1)C2` [Example 148, 4-cyano-2-(methylsulfonamido)-N-(3-(trifluoromethyl)bicyclo[1.1.1]pentan-1-yl)benzamide], the figure is 17.7 µM; as for `O=C(NC12CC(C(F)(F)F)(C1)C2)c1ccc(F)cc1NS(=O)(=O)c1ncccn1` [Example 149, 4-fluoro-2-(pyrimidine-2-sulfonamido)-N-(3-(trifluoromethyl)bicyclo[1.1.1]pentan-1-yl)benzamide], not below 20 µM.
Consider `CS(=O)(=O)c1ccc(NS(=O)(=O)c2ccc(S(F)(F)(F)(F)F)cc2)c(C(=O)NC23CC(C(F)(F)F)(C2)C3)c1` [Example 150, 5-(methylsulfonyl)-2-((4-(pentafluoro-λ^6-sulfanyl)phenyl)sulfonamido)-N-(3-(trifluoromethyl)bicyclo[1.1.1]pentan-1-yl)benzamide], for which the EC50 is not below 20 µM.
On the same count and under the same terms, the result for `[2H]C([2H])([2H])C(c1ccc(S(=O)(=O)Nc2ccc(S(C)(=O)=O)cc2C(=O)NC23CC(C(F)(F)F)(C2)C3)cc1)(C([2H])([2H])[2H])C([2H])([2H])[2H]` [Example 151, 2-((4-(2-(methyl-d3)propan-2-yl-1,1,1,3,3,3-d6)phenyl)sulfonamido)-5-(methylsulfonyl)-N-(3-(trifluoromethyl)bicyclo[1.1.1]pentan-1-yl)benzamide] reads 9.39 µM; that for `CC(C)(C)S(=O)(=O)c1ccc(S(=O)(=O)Nc2cc(F)ccc2C(=O)NC23CC(C(F)(F)F)(C2)C3)cc1` [Example 152, 2-((4-(tert-butylsulfonyl)phenyl)sulfonamido)-4-fluoro-N-(3-(trifluoromethyl)bicyclo[1.1.1]pentan-1-yl)benzamide], 1.13 µM.
As to `CC(C)(C)S(=O)(=O)c1ccc(S(=O)(=O)Nc2cc(F)ccc2C(=O)NC23CC(C#N)(C2)C3)cc1` [Example 153, 2-((4-(tert-butylsulfonyl)phenyl)sulfonamido)-N-(3-cyanobicyclo[1.1.1]pentan-1-yl)-4-fluorobenzamide], the EC50 amounted to 10.7 µM.
In the case of `CS(=O)(=O)c1ccc(S(=O)(=O)Nc2cc(S(F)(F)(F)(F)F)ccc2C(=O)NC23CC(C(F)(F)F)(C2)C3)cc1` [Example 154, 2-((4-(methylsulfonyl)phenyl)sulfonamido)-4-(pentafluoro-λ^6-sulfanyl)-N-(3-(trifluoromethyl)bicyclo[1.1.1]pentan-1-yl)benzamide], the EC50 was determined as 8.02 µM.
On the same count and under the same terms, the result for `CS(=O)(=O)c1ccc(S(=O)(=O)Nc2cc(S(F)(F)(F)(F)F)ccc2C(=O)NC23CC(C2)C3)cc1` [Example 155, N-(bicyclo[1.1.1]pentan-1-yl)-2-((4-(methylsulfonyl)phenyl)sulfonamido)-4-(pentafluoro-λ^6-sulfanyl)benzamide] reads 5.87 µM; that for `CC(C)(C)S(=O)(=O)Nc1ccc(C(F)(F)F)cc1C(=O)NC12CCC(C(=O)O)(CC1)CC2` [Example 156, 4-(2-((1,1-dimethylethyl)sulfonamido)-5-(trifluoromethyl)benzamido)bicyclo[2.2.2]octane-1-carboxylic Acid], not below 200 µM; that for `CC(C)(C)S(=O)(=O)Nc1ccc(C(F)(F)F)cc1C(=O)NC12CC(C(F)(F)F)(C1)C2` [Example 157, 2-((1,1-dimethylethyl)sulfonamido)-5-(trifluoromethyl)-N-(3-(trifluoromethyl)bicyclo[1.1.1]pentan-1-yl)benzamide], 0.352 µM.
Consider `N#Cc1ccc(S(=O)(=O)Nc2cc(C(F)(F)F)ccc2C(=O)NC23CC(C(F)(F)F)(C2)C3)cc1` [Example 158, 2-((4-cyanophenyl)sulfonamido)-4-(trifluoromethyl)-N-(3-(trifluoromethyl)bicyclo[1.1.1]pentan-1-yl)benzamide], for which the EC50 was found to be 1.43 µM.
For `O=C(NC12CC(C(F)(F)F)(C1)C2)c1ccc(C(F)(F)F)cc1NS(=O)(=O)c1ccc(-c2nnn[nH]2)cc1` [Example 159, 2-((4-(1H-tetrazol-5-yl)phenyl)sulfonamido)-4-(trifluoromethyl)-N-(3-(trifluoromethyl)bicyclo[1.1.1]pentan-1-yl)benzamide], the EC50 was not below 200 µM.
On the same count and under the same terms, the result for `N#Cc1ccc(S(=O)(=O)Nc2cc(C(F)(F)F)ccc2C(=O)NC23CC(c4ccccc4)(C2)C3)cc1` [Example 160, 2-((4-cyanophenyl)sulfonamido)-N-(3-phenylbicyclo[1.1.1]pentan-1-yl)-4-(trifluoromethyl)benzamide] reads 0.632 µM.
The same measure, in the same setting: as for `CC(C)(C)S(=O)(=O)Nc1cc(S(F)(F)(F)(F)F)ccc1C(=O)NC12CCC(C#N)(CC1)CC2` [Example 161, N-(4-cyanobicyclo[2.2.2]octan-1-yl)-2-((1,1-dimethylethyl)sulfonamido)-4-(pentafluoro-λ^6-sulfanyl)benzamide], the figure is 1.09 µM.
Still for that read-out and setting: as for `O=C(NC12CC(C(F)(F)F)(C1)C2)c1cc(C(F)(F)F)ccc1NS(=O)(=O)C1CCS(=O)(=O)CC1` [Example 162, 2-((1,1-dioxidotetrahydro-2H-thiopyran)-4-sulfonamido)-5-(trifluoromethyl)-N-(3-(trifluoromethyl)bicyclo[1.1.1]pentan-1-yl)benzamide], the figure is 34.1 µM; as for `CN(C)S(=O)(=O)Nc1cc(C(F)(F)F)ccc1C(=O)NC12CCC(C#N)(CC1)CC2` [Example 163, N-(4-cyanobicyclo[2.2.2]octan-1-yl)-2-((N,N-dimethylsulfamoyl)amino)-4-(trifluoromethyl)benzamide], 3.77 µM; as for `CC(C)(C)S(=O)(=O)Nc1ccc(C(F)(F)F)cc1C(=O)NC12CC(C#N)(C1)C2` [Example 164, N-(3-cyanobicyclo[1.1.1]pentan-1-yl)-2-((1,1-dimethylethyl)sulfonamido)-5-(trifluoromethyl)benzamide], 1.74 µM.
On to `CS(=O)(=O)Nc1ccc(C(F)(F)F)cc1C(=O)NC12CC(C#N)(C1)C2` [Example 165, N-(3-cyanobicyclo[1.1.1]pentan-1-yl)-2-(methylsulfonamido)-5(trifluoromethyl)benzamide], for which the EC50 turned out to be 20.8 µM.

Still in this assay, the particulars now being: medium with 2% FBS, OCR at 3-min post-injection normalized to % increase over DMSO-treated cells, concentration for half-maximal OCR increase, read-out: EC50-PC3-OCR-FBS-3min.
With `CS(=O)(=O)Nc1c(F)cccc1C(=O)NC12CC(C(F)(F)F)(C1)C2` [Example 145, 3-fluoro-2-(methylsulfonamido)-N-(3-(trifluoromethyl)bicyclo[1.1.1]pentan-1-yl)benzamide], the EC50 was not below 100 µM.

These data come from patent publication US12049439B2 (OrsoBio, Inc., priority 2018, dated 2024).
